# Activity calls are given as the source filed them. Rule as the data show it, for most assays here: actives have a measured EC50 and inactives only a lower limit.
# How the values were obtained:
# [1] = NIH-3T3 fibroblast cytotoxicity, dose response, cytotoxicity control, cell-based, fluorescence, Alamar Blue, secondary assay (AID 2327); type: functional;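 also: NIH-3T3 mouse fibroblasts cultured with fluconazole at 8 µg/mL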
# [2] = C. albicans growth with fluconazole, confirmation, fluorescence, retest (AID 2467); type: functional, cell-based
# [3] = target: T1, Corticotropin-releasing factor receptor 2/Corticotropin-releasing factor-binding protein (Homo sapiens, UniProt P24387+Q13324); test: activators of CRF receptor 2 with binding protein – uHTS hits, confirmation (AID 602473); type: functional; conditions: read-out: EC50_Mean
# T1 sequence (Q13324 whole entry): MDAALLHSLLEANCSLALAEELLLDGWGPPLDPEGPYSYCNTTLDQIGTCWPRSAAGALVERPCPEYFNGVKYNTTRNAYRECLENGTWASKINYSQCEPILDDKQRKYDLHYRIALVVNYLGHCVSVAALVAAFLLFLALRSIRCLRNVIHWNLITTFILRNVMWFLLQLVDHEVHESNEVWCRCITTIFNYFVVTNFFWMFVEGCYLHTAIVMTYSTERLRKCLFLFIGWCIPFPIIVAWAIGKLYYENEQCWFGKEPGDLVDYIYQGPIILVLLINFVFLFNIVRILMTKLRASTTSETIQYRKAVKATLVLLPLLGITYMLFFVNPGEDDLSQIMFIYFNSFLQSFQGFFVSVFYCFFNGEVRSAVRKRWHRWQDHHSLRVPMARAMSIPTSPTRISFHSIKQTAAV
# T1 sequence (P24387 whole entry): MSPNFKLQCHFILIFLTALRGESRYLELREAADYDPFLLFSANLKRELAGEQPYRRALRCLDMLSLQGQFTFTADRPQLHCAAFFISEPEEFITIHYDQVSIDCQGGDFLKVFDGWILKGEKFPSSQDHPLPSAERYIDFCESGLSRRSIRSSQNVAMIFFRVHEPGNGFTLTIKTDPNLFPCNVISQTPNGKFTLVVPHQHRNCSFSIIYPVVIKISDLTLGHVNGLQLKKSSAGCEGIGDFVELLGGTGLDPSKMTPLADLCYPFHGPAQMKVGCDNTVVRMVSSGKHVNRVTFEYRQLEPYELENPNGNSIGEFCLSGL
# [4] = inhibitors of intracellular T. cruzi replication, confirmation, NIH3T3 host cells, beta-gal luminescence (AID 2044); type: functional, cell-based;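 also: intracellular parasites grown in NIH/3T3 mouse fibroblasts as host cells; luminescent beta-galactosidase reporter signal from transgenic T. cruzi replicating inside host cells; inhibitors lower the luminescence signal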
# [5] = cytotoxicity toward NIH3T3 fibroblasts, dose response, counter-screen, cell-based, ATP luminescence, mouse fibroblasts (AID 2010); type: functional;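 also: cells exposed to compound for about 90 hours before reading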
# [6] = microbe, parasite or virus in culture; type: functional; conditions: Mycobacterium tuberculosis
# [7] = Luminescence Cell-Based Dose Response HTS to Identify Inhibitors of 5'UTR Stem-Loop Driven Prion Protein mRNA Translation in H4 Neuroglioblastoma Cells. [Related pubchem assays: 1827 (Project Summary), 1813 (Primary HTS)]; type: functional
# [8] = inhibitors of SNCA 5'UTR-driven reporter translation, confirmation, H4 neuroglioma cells, luminescence (AID 1988); type: functional, cell-based
# [9] = inhibitors of firefly luciferase expression or activity, dose response, H4 neuroglioma cells, luminescence (AID 1990); type: functional, cell-based
# [10] = Luminescence Cell-Based Dose Retest to Confirm Inhibitors of Cancer Stem Cells. [Related pubchem assays (depositor defined):AID2717, AID2721]; type: functional; conditions: Homo sapiens
# [11] = HEp-2 cell cytotoxicity, dose response, cytotoxicity control for RSV inhibitor project, HTS (AID 2410); type: functional; conditions: human respiratory syncytial virus
# [12] = target: T2, Heat shock factor protein 1 (Mus musculus, UniProt P38532); test: HSF1 potentiators in luciferase reporter cells, confirmation, cell-based, NIH3T3, luminescence, dose retest (AID 435004); type: functional;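 also: stress induced by proteasome inhibitor MG132 added 30 min after compound; luciferase reporter driven by HSF1 response element in NIH3T3 cells; actives raise luminescence as potentiators of the MG132 stress response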
# T2 sequence (P38532 whole entry): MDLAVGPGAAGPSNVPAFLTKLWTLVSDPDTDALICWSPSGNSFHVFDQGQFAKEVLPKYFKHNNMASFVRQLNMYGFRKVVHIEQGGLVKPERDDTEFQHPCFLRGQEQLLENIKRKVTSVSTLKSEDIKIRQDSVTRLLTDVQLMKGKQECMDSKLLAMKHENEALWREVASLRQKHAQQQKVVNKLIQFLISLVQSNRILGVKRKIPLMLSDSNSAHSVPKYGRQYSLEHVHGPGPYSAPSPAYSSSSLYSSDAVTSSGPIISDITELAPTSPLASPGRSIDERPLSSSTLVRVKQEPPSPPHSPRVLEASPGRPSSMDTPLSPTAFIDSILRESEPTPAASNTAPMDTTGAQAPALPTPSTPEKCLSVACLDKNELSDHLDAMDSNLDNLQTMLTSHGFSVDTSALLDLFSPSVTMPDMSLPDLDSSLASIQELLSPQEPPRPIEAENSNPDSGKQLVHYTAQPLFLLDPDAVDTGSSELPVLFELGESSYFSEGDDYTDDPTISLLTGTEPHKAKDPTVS
# INS1 = test: beta cell apoptosis inhibitors, cytokine rescue, dose response, luminescence, retest (AID 449756); type: functional, cell-based; conditions: Rattus norvegicus;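 also: cell death triggered by IL-1 beta plus TNF-alpha plus IFN-gamma mixture; protective hits raise ATP signal compared with cytokine alone wells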
# [13] = target: T3, Replicative DNA helicase DnaB (Mycobacterium tuberculosis, UniProt P9WMR3); test: DnaB intein splicing inhibitors, dose response, biochemical, cell-free fluorescence (AID 449749); type: functional
# T3 sequence (P9WMR3 whole entry): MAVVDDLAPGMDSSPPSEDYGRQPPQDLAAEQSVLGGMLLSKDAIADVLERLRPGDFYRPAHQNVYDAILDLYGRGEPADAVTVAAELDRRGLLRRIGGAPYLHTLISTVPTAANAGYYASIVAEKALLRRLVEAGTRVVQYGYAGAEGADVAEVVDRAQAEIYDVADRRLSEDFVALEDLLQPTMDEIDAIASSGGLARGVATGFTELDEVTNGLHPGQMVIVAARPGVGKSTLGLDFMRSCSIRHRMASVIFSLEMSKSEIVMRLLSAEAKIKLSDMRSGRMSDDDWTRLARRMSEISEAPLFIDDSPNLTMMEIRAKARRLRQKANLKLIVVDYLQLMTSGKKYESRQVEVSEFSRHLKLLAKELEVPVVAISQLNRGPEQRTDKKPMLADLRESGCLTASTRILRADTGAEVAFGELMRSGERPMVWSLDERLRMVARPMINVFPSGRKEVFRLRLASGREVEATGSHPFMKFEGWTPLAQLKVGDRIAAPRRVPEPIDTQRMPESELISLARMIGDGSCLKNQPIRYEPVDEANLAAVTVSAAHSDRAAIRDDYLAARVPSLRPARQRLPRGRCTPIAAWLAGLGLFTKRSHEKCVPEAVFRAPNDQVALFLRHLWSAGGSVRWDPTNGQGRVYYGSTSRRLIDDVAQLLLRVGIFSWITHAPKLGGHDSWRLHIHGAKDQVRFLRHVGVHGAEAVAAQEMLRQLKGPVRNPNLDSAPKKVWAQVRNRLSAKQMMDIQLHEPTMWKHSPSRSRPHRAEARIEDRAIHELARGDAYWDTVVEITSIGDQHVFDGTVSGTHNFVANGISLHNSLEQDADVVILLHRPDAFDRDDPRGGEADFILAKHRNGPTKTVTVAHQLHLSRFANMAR
# Protein RecA = target: T4, Protein RecA (Mycobacterium tuberculosis, UniProt P9WHJ3); test: Fluorescence Cell-Free Homogeneous Dose Retest to Identify Inhibitors of RecA-Intein Splicing Activity. [Related pubchem assays (depositor defined):AID2097, AID2223, AID489010, AID492950]; type: functional
# T4 sequence (P9WHJ3 whole entry): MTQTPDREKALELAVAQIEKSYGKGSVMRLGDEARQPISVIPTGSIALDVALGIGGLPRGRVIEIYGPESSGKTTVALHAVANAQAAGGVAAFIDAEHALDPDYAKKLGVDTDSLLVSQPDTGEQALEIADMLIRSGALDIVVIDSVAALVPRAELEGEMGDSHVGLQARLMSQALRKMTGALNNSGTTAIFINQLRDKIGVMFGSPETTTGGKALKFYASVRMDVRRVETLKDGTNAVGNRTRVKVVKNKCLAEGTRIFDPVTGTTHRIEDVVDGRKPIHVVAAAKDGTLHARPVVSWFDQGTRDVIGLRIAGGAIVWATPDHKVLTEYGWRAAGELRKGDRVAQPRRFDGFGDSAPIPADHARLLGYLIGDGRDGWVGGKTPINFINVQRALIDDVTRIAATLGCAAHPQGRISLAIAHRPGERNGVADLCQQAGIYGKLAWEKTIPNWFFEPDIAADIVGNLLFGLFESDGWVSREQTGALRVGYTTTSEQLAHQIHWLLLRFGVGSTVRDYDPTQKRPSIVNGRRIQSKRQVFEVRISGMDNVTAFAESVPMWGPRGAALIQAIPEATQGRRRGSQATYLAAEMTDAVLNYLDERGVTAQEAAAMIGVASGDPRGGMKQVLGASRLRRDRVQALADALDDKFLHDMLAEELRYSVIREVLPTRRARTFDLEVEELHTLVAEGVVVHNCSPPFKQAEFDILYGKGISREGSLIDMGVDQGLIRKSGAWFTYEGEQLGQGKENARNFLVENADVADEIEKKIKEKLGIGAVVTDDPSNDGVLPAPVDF
smiles,measurement,setting,value
Fc1ccc2c(c1)C(c1ccncc1)=NNC(c1cccnc1)=N2,EC50,[1],> 160 µM (inactive)
same,EC50,[2],2.26 µM (active)
O=C1/C(=C/c2ccc(O)cc2)SC(=S)N1Cc1cccnc1,EC50,[3],12.9 µM (active)
Cc1ccc(-n2nc(C)c3c(C)c(CCC(=O)Nc4ccc(CN5CCCC5)cc4)c(C)nc32)cc1,EC50,[4],1.76 µM (active)
same,EC50,[5],> 60 µM (not active)
same,CC50,[6],8.7 µM (active)
same,EC50,[7],> 120 µM (not active)
same,EC50,[8],8.22 µM (active)
same,EC50,[9],9.39 µM (active)
same,AC50,[10],5.7 µM (active)
CCc1ccccc1N(CC)C(=O)C1CCN(c2ncnc3c2nc2n3CCCCC2)CC1,CC50,[11],17.2 µM (active)
CCOc1ccc(-n2c(SCc3cc(=O)oc4cc(C)c(C(C)C)cc34)nnc2-c2cccnc2)cc1,CC50,[11],17.5 µM (active)
CN=C(S)NNC(=O)c1ccc(N(C)C)cc1,CC50,[11],> 50 µM (active)
Cc1nc2ccccc2cc1OCc1ccccc1,EC50,[1],> 160 µM (inactive)
same,EC50,[2],3.26 µM (active)
O=S(=O)(c1ccccc1)N1CCCC(c2nc(O)c3nnn(Cc4ccccc4Br)c3n2)C1 (stereo not drawn),CC50,[11],18.2 µM (active)
O=C(c1ccco1)c1coc2c1cc(O)c1ccccc12,EC50,[12],65.4 µM (active)
same,AC50,INS1,27 µM (active)
same,AC50,[13],16.2 µM (active)
same,EC50,Protein RecA,48.7 µM (active)
c1coc(CNc2c3c(nc4ncnn24)CCC3)c1,CC50,[11],40.5 µM (active)
Cn1c(=O)c(C(=O)COC(=O)c2cc(C(F)(F)F)nc3c(C(F)(F)F)cccc23)c(N)n(CC2CC2)c1=O,CC50,[6],> 40 µM (active)
CCn1nc(C)c(C(=O)Nc2cc(Oc3cc(C)cc(C)c3)cc([N+](=O)[O-])c2)c1C,CC50,[6],22.7 µM (active)
